Laboratory results from patent US7427599B2, “Biologically active peptide comprising Tyrosyl-seryl-valine(YSV)” (CMS Peptides Patent Holding Company Limited, priority 2003, dated 2008).
Peptide text beside a SMILES is read from it.

Tests used:
[1] = test system: human leukemia K562 cells; test: Proliferation of cultured human leukemia K562 cells in vitro (MTT); assay type: cell-based; conditions: for % inhibition / OD value: 48 hours; for OD value: MTT OD570 nm, negative control 0.43 ± 0.01
Protocol: A human leukemia K562 cell at logarithmic growth phase was adjusted to density of 5×10^4/ml with RPMI-1640 culture medium containing 10% FBS. 100 μl/well of the cell were placed onto a 96 wells cell culture plate. The cells were incubated for 24 hours at 37° C., 5% CO2. The experiment included […] with different concentrations of YSV in culture medium and a negative control group with culture medium only. The final concentrations of YSV were 40 μg/ml, 20 μg/ml, 10 μg/ml, and 5 μg/ml. Each group contained five parallel wells. 100 μl/well testing solution was added to the treated cells. The cells were incubated for 48 hours at 37° C., 5% CO2.
The cells were then pelleted by centrifugation at 150 g for 10 minutes. The supernatant was removed and 100 μl/well MTT solution of 0.5 mg/ml in RPMI-1640 was added to the cell pellets and the cells were re-suspended by shaking for 2 minutes. Incubation was continued for 4 hours. The supernatant was removed after a centrifugation at 150 g for 10 minutes. After blotted dry by filter paper, 100 μl/well 40 mM HCl-2-propanol was added to the cell pellets and shaken for 3 minutes. OD570 nm of each well referenced at 630 nm was obtained by using ELISA reader.

human leukemia K562 = test: Growth of nude mice-transplanted human leukemia K562; assay type: in vivo, nude mice (BALB/C (nu/nu))
Protocol: K-562 cells were maintained in RPMI-1640 medium with 10% FBS at 37° C., 5% CO2.
K562 cells at log phase were adjusted to 1.6×10^8/ml with RPMI-1640. 0.1 ml of this was subcutaneously injected to the right flank of the healthy nude mice to form the leukemia mice model.
The mice bearing human leukemia K562 cells were randomized into groups of: saline control (0.2 ml/day), and YSV (160 μg/kg/day). The test substance was dissolved in 0.2 ml saline and administration of the test substance by intraperitoneal injection was started on the next day after the K562 inoculation, once per day for 30 consecutive days.
The general conditions of the mice was examined daily and the tumor size was measured in every 3-4 days. Tumor volume (mm^3) V=(⅙)πXYZ where X, Y, and Z were the diameters of the tumor on the three planes.
On the next day after the last test substance administration, the tumors were excised, the weight of tumor was recorded and the tumor volume was measured. Tumor growth inhibition index (%)=(mean tumor weight of control group—mean tumor weight of treatment group)/mean tumor weight of control group×100)
All the data were shown as arithmetic mean ±SD. The data were analyzed using the ANOVA test of the SPSS software. P<0.05 was accepted as having statistical significance.

[2] = test system: T lymphocytes (spleen lymphocyte suspension); test: Effect of YSV on T lymphocyte transformation in vitro (ConA, MTT); assay type: cell-based, BALB/c Mice; conditions: for X ± SD (OD), T lymphocytes transformation: 68 hrs, MTT OD570 nm, positive control 0.14 ± 0.00
Protocol: Healthy mice were sacrificed by cervical dislocation. The spleens were isolated and dispersed aseptically. The spleen lymphocyte suspension washed and adjusted to a cell density of 5×10^6/ml with RPMI-1640 culture medium containing 10% fetal bovine serum. YSV was diluted with RPMI-1640 culture medium into various concentrations: 2 μg/ml, 0.4 μg/ml, 0.08 μg/ml, 0.016 μg/ml. Con A working solution was adjusted to 1 mg/ml with RPMI-1640 culture medium.
The reagents were placed onto a 96 wells cell culture plate according to the following: 100 μl/well lymphocyte suspension, 20 μl/well ConA, and 100 μl/well YSV solution of various concentrations, 6 parallel wells for each concentration; 100 μl/well lymphocyte suspension and 120 μl/well RPMI-1640 culture medium (containing 10% FBS) were added to 12 parallel wells as negative control; 100 μl/well lymphocyte suspension, 100 μl/well RPMI-1640 culture medium (10% FBS) and 20 μl/well ConA were added to 12 parallel wells as positive control.
The cells were incubated for 68 hrs at 37° C., 5% CO2, and then pelleted by centrifugation at 150 g for 10 minutes. After the supernatant was removed, 50 μl/well MTT of 1 mg/ml in RPMI-1640 was added to the cell pellet and the cells were re-suspended by shaking for 2 minutes. The incubation was continued for 4 hours. The supernatant was removed after centrifugation at 150 g for 10 minutes. After blotted dry with filter paper, the cells were mixed with 120 μl 40 mM HCl-2-propanol and shaken for 3 minutes. OD570 nm of each well referenced at 630 nm was obtained with an ELISA reader.

CC(C)[C@H](NC(=O)[C@H](CO)NC(=O)[C@@H](N)Cc1ccc(O)cc1)C(=O)O [YSV, L-Tyrosyl-L-seryl-L-valine] (H-Tyr-Ser-Val-OH)
inhibition of growth of K562 cells in vitro (conclusion) ([1]; 5 μg/ml to 40 μg/ml, p<0.05): able to inhibit the growth of human leukemia K562 cells in vitro | % inhibition ([1]; 5 μg/ml): 9.7% | OD value ([1]; 5 μg/ml): 0.39 ± 0.01 | % inhibition ([1]; 10 μg/ml): 9.3% | OD value ([1]; 10 μg/ml): 0.39 ± 0.01 | % inhibition ([1]; 20 μg/ml): 11.3% | OD value ([1]; 20 μg/ml): 0.38 ± 0.00 | % inhibition ([1]; 40 μg/ml): 10.8% | OD value ([1]; 40 μg/ml): 0.38 ± 0.00 | Inhibition index (%) (human leukemia K562; 160 μg/kg/day intraperitoneal, 30 consecutive days, from tumor weight vs saline): 37.9% | Tumor weight (human leukemia K562; 160 μg/kg/day intraperitoneal, 30 consecutive days, saline 4.75 ± 2.21): 2.95 ± 1.58 g | Tumor volume (cm3) (human leukemia K562; 160 μg/kg/day intraperitoneal, 30 consecutive days, saline 5.08 ± 2.15): 3.15 ± 1.74 cm3 | inhibition of growth of nude mice-transplanted K562 (conclusion) (human leukemia K562; suitable dosage, p<0.05 vs saline): able to inhibit the growth of nude mice-transplanted significantly human leukemia K562 | stimulation of T lymphocyte transformation activity in vitro (conclusion) ([2]; 0.016 μg/ml to 2 μg/ml, p<0.001): able to stimulate the T lymphocyte transformation activity in vitro with statistical significance | X ± SD (OD), T lymphocytes transformation ([2]; YSV 0.016 μg/ml with ConA): 0.21 ± 0.01 OD | X ± SD (OD), T lymphocytes transformation ([2]; YSV 0.08 μg/ml with ConA): 0.23 ± 0.00 OD | X ± SD (OD), T lymphocytes transformation ([2]; YSV 0.4 μg/ml with ConA): 0.18 ± 0.01 OD | X ± SD (OD), T lymphocytes transformation ([2]; YSV 2 μg/ml with ConA): 0.18 ± 0.00 OD
